Assays:
[1] = Cytotoxicity against human CXF 1103L cells after 4 days by propidium iodide staining; conditions: 96 h
[2] = target: Tyrosine-protein kinase Yes (Homo sapiens, UniProt P07947); test: Inhibition of human Yes1 using [gamma-33P]ATP assessed as residual activity at 3 uM after 30 mins by radiometric assay
[3] = Cytotoxicity against human RXF 393NL cells after 4 days by propidium iodide staining; conditions: 96 h
[4] = target: Receptor-interacting serine/threonine-protein kinase 2 (Homo sapiens) (UniProt O43353); test: Inhibition of human RIPK2 using [gamma-33P]ATP assessed as residual activity at 3 uM after 30 mins by radiometric assay
[5] = target: T1, Ephrin type-B receptor 1 (Homo sapiens) (UniProt P54762); test: Inhibition of human Eph-B1 using [gamma-33P]ATP assessed as residual activity at 3 uM after 30 mins by radiometric assay
T1 sequence (whole entry): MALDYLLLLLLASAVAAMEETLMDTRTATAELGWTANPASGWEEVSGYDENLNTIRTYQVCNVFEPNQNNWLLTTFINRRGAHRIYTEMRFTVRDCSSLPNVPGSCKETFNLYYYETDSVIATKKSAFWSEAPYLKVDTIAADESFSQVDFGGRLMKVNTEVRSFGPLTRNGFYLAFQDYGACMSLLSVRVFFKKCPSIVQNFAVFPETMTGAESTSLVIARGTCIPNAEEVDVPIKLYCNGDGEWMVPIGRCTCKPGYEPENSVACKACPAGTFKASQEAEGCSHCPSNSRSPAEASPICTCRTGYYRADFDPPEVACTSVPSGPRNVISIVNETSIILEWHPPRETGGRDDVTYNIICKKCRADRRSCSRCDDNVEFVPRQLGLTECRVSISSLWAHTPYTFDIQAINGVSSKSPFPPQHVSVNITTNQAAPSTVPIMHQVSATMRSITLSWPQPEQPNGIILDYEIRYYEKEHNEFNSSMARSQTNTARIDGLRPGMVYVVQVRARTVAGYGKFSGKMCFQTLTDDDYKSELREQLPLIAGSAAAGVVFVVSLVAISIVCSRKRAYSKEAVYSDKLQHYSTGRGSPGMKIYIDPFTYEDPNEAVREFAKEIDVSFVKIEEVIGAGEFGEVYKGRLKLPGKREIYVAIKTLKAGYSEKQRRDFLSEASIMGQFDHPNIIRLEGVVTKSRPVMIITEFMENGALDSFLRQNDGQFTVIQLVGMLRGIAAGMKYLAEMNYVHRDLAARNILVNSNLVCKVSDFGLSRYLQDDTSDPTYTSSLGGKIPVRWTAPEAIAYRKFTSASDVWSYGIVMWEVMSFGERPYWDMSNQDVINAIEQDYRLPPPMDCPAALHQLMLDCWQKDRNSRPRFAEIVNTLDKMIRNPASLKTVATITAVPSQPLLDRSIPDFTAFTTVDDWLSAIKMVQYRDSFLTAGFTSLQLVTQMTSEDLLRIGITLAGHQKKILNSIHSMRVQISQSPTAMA

[6] = target: T2, Ephrin type-B receptor 4 (Homo sapiens, UniProt P54760); test: Inhibition of EphB4 (unknown origin) transfected in CHO cells using Z'-LYTE TYR-1 peptide as substrate after 2 hrs by FRET assay; assay type: cell-based
T2 sequence (P54760 whole entry): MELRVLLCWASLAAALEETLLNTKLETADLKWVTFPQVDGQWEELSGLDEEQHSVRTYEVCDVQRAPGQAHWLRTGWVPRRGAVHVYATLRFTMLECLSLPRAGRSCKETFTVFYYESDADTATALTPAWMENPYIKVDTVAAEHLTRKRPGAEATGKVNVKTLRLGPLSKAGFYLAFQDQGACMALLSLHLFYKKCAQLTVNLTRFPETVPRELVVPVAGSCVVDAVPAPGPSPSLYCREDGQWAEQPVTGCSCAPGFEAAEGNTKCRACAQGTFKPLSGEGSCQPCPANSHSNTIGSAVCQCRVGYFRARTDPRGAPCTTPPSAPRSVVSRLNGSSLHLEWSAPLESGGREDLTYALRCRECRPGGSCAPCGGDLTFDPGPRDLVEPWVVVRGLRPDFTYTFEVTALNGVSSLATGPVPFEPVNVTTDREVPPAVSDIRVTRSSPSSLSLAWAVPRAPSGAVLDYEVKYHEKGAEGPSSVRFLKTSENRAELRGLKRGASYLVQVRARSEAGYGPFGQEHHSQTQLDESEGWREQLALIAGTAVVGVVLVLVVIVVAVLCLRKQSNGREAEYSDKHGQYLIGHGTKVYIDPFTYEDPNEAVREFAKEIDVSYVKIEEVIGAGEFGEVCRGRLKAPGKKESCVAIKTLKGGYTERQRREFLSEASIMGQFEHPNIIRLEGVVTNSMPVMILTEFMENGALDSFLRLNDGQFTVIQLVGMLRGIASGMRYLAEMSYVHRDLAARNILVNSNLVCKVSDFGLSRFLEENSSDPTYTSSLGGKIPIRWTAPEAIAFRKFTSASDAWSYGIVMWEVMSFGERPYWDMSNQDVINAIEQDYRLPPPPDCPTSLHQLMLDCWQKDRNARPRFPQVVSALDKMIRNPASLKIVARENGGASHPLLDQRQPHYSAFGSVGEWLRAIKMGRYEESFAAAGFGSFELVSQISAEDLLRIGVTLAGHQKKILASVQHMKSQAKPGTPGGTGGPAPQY

[7] = Permeability from apical to basolateral side in human Caco2 cells assessed as compound recovery after 2 hrs by LC-MS/MS analysis; assay type: ADME, cell-based; conditions: Caco-2, read-out: permeability
[8] = target: T2, Ephrin type-B receptor 4
Description: Inhibition of EphB4 (unknown origin) transfected in CHO cells using [gamma-33P]ATP by radiometric assay

[9] = Cytotoxicity against human GXF251L cells after 4 days by propidium iodide staining; conditions: GXF 251L, 96 h
[10] = Apparent permeability from basolateral to apical side in human Caco2 cells after 2 hrs by LC-MS/MS analysis; assay type: ADME, cell-based; conditions: Caco-2

Sequence of Tyrosine-protein kinase Yes (P07947 2-543 limits assumed): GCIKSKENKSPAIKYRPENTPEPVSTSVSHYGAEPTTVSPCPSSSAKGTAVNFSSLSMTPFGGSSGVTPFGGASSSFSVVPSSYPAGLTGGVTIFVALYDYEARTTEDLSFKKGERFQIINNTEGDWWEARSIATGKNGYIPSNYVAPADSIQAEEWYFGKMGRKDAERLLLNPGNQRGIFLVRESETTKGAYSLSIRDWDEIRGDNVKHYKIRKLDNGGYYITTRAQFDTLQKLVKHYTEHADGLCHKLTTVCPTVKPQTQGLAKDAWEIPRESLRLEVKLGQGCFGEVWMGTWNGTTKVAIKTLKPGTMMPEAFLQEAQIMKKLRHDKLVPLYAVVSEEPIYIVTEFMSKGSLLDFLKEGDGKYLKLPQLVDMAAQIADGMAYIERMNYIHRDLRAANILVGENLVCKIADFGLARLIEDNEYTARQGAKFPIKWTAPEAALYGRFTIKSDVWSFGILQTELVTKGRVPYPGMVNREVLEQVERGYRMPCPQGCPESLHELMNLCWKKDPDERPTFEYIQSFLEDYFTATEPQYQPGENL
Sequence of Receptor-interacting serine/threonine-protein kinase 2 (Homo sapiens) (O43353 whole entry): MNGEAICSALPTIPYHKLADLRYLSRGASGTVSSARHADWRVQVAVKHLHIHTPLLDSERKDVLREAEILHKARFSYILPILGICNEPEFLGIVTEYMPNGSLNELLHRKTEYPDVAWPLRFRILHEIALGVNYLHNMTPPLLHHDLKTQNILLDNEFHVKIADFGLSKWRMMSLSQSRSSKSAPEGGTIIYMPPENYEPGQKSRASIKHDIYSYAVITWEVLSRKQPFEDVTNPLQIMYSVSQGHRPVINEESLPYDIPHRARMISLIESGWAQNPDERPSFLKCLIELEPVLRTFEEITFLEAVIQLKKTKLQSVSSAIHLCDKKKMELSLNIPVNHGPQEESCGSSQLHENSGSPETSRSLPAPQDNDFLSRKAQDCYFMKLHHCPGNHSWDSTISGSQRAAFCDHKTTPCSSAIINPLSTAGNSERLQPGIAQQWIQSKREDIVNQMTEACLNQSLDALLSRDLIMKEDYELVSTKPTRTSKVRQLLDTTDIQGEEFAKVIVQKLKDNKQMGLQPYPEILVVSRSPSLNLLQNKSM

Structure (SMILES): CCCCn1c(-c2ccccc2C)cn2c3c(=O)[nH]c(=O)n(C)c3nc12
- IC50 [1]: 4.61 µM
- Activity [2]: 14%
- IC50 [3]: 7.6 µM
- Activity [4]: 12%
- Activity [5]: 10%
- IC50 [6]: 0.056 µM
- recovery at 2 h [7]: 85%
- IC50 [8]: 0.082 µM
- IC50 [9]: 14.6 µM
- Papp B→A at 2 h [10]: 28.1 ×10⁻⁶ cm/s

— ChEMBL document CHEMBL2331203, “Optimization of inhibitors of the tyrosine kinase EphB4. 2. Cellular potency improvement and binding mode validation by X-ray crystallography” (J Med Chem, 2013)
